# Assay results reported in patent US20030161893A1, “PTPase inhibitors and methods of using the same” (priority 2001, published 2003).
# Columns and labels:
# [1] = test system: Baf3 cells; assay: Induction of cellular protein tyrosine phosphorylation in Baf3 cells (Western blotting); type: cell-based, murine; conditions: Baf3 deprived of IL-3; proteins of about 55 and 32 kDa
# Protocol: For induction of cellular protein phosphorylation by sodium stibogluconate or pervanadate, Baf3 cells were incubated in 0.1% FCS-RPMI 1640 medium at 37° C. for 16 hours. The cells were then washed twice in RPMI 1640 medium and incubated with sodium stibogluconate or pervanandate (0.1 mM) for various times prior to termination by lysing cells in cold lysis buffer (50 mM Tris, pH 7.4; 150 mM NaCl; 0.2 mM Na3VO4; 20 mm NaF; 1% Nonidet P-40; 2 mM PMSF; 20 μg/ml of Aprotinin and 1 mM of sodium molybdic acid). To determine the effect of sodium stibogluconate or potassium antimonyl tartrate on IL-3-induced Jak/Stat phosphorylation, Baf3 cells were deprived of the growth factor for 16 hours in 0.1% FCS RPMI 1640 medium and then incubated with or without sodium stibogluconate or potassium antimonyl tartrate for 10 minutes. IL-3 was next added to the cell suspension and incubated for various times. The Cells were then harvested and lysed in cold lysis buffer at 4° C. for 45 minutes. Total cell lysates (TCL) were separated in SDS-PAGE gels, blotted onto nitrocellulose membrane (Schleicher & Schuell), probed with specific antibodies and detected using an enhanced chemiluminescence kit (ECL, Amersham, Arlington Heights, Ill.).
# [2] = target: T1, Flag-PRL-2 (Homo sapiens, UniProt Q12974); assay: Immunocomplex PTPase assay, Flag-PRL-2 NIH3T3 transfectants; type: cell-based
# T1 construct: expressed in transfected cells
# Protocol: Immunocomplex PTPase assays were performed to assess the effects of sodium stibogluconate on intracellular PTPases. Cells were untreated or treated with sodium stibogluconate for 5 minutes, washed with fresh medium and then lysed in cold lysis buffer (50 mM Tris, pH 7.4; 150 mM NaCl; 1% NP40; 2 mM PMSF; 20 ,g/ml of Aprotinin). The lysates were incubated with an anti-Flag antibody in immunoprecipitation assays. The immunocomplexes were collected with protein G sepharose beads (Pharmacia) and washed in cold lysis buffer for 4 times. […] 100 μL of malachite green solution (UBI) was added to each reaction prior to measurement of OD660 to quantify the amounts of free phosphate cleaved by the PTPases from the peptide substrate (Pathak et al., J. Imumol. 167, 3391 (2001)). The remaining 10% contents of individual samples were analyzed by SDS-PAGE/Western blotting to quantify the relative amounts of the phosphatase proteins. […]
# The effects of sodium stibogluconate on intracellular PTPases were assessed using NIH3T3 or WM9 transfectants. […]
# [3] = test system: Stat1; assay: IFN-alpha-induced Stat1 tyrosine phosphorylation, WM9 cells; type: cell-based, human; conditions: WM9, 5 hours post-stimulation
# Protocol: (§1) For induction of Stat1 tyrosine phosphorylation by IFN-alpha in the absence or presence of sodium stibogluconate, cells grown in 10% FCS RPMI 1640 medium at 37° C. were stimulated with IFN-alpha (50 u/ml) for various time points and treated with or without sodium stibogluconate for 5 minutes prior to termination by lysing the cells in cold lysis buffer (1% NP-40; 50 mM Tris, pH 7.4; 100 mM NaCl; 1 mM EDTA, 10% glycerol, 10 mM sodium molybdic acid and 4 mM AEBSF).
# (§2) Cell lysates were prepared by lysing cells in cold lysis buffer for 30 min and cleared by centrifuging at 14,000 rpm at 4° C. for 15 min. For SDS-PAGE, cell lysates were mixed with equal volume of 2×SDS-PAGE sample buffer, heated at 90° C. for 5 min and separated in 10% SDS-PAGE gels. Cellular proteins in SDS-PAGE gels were transferred to nitrocellulose membrane (Schleicher & Schuell, Keene, N.H.), blocked in 5% milk, probed with antibodies and detected by using an enhanced chemiluminescence kit (ECL, Amersham, Arlington Heights, Ill.).
# [4] = test system: DU145R cells; assay: Cell growth assay (MTT), DU145R cells; type: cell-based, human; conditions: day 6 culture
# Protocol: DU145 cells were cultured in the presence of sodium stibogluconate (100 μg/ml) in 48 well plates for 3 weeks. Cells from a well containing a single colony were transferred to flasks, cultured in sodium stibogluconate-free medium for 3 weeks and used as DU145R cells for further characterization. Growth of DU145R cells in the absence or presence of sodium stibogluconate in day 6 culture was determined by MTT assays. cDNAs of the coding region of PRLs were derived by RT-PCR from DU145 and DU145R cells and sequenced using primers described below.
# [5] = test system: WM9 cells; assay: Cell proliferation assay (MTT), WM9 melanoma cells; type: cell-based, human
# Protocol: For cell proliferation assays, cells were grown in 10% FCS culture medium containing various amounts of IFNs and/or sodium stibogluconate in 96 well plates and cultured at 37° C. for 3 or 6 days as indicated. The numbers of viable cells in proliferation assays were determined by MTT assays as described in Phatak et al., J. Immunol. 167, 3391 (2001).
# Dose response curves were generated for each drug alone, and also the combinations. Median effect plots were generated for IFNs alone, sodium stibogluconate alone, and the combination. The combination index (CI) was determined and plotted vs. fraction affected (FA). Data were analyzed in both modes, mutually exclusive and mutually nonexclusive. The interaction between two mutually nonexclusive drugs is described by the Equation CI=D1/D×1+D2/D×2+D1D2/D×1D×2, where D×1 and D×2 are the doses of drug 1 and drug 2 that are required to inhibit growth×%. […] When CI<1, drugs are synergistic, when CI=1, drugs are additive, and when CI>1, drugs are antagonistic.
# [6] = test system: Stat1; assay: IFN-alpha-induced Stat1 tyrosine phosphorylation, DU145 cells; type: cell-based, human; conditions: DU145, 5 hours post-stimulation
# Protocol: as §1, §2
# [7] = test system: Stat1; assay: IFN-alpha-induced Stat1 tyrosine phosphorylation, WM35 cells; type: cell-based, human
# Protocol: as §1, §2
# [8] = test system: PML/RAR-alpha chimeric protein; assay: PML/RAR-alpha chimeric protein expression in NB4 cells; type: cell-based, human
# T1 sequence (Q12974 whole entry): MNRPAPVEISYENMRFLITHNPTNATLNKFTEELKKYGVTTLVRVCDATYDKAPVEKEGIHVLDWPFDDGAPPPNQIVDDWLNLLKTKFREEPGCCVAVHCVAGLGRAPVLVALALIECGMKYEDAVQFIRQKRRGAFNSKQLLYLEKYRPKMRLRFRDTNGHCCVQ
structure (smiles),measurement,setting,value
O.O.O.O.O.O.O.O.O.O=C([O-])[C@@H]1[O][Sb]2([O-])([O][Sb]34([OH])[O][C@H]([C@H](O)CO)[C@H]([O]3)[C@H](C(=O)[O-])[O]4)[O][C@H]([C@H](O)CO)[C@@H]1[O]2.[Na+].[Na+].[Na+] [sodium stibogluconate],cellular protein tyrosine phosphorylation,[1],induced protein tyrosine phosphorylation
same,time for full removal of effect on intracellular PRL-2 activity,"[2]; brief treatment, NIH3T3 transfectants",at least 24 hours
same,"PTPase activity of anti-Flag immunocomplexes, Flag-PRL-2",[2]; cells treated 5 min,lack of PTPase activity
same,IFN-alpha-induced Stat1 tyrosine phosphorylation,[3],Enhanced
same,growth of DU145R cells versus parental DU145,[4],growth resistance to sodium stibogluconate
same,"killing of WM9 cells, single agent","[5]; 50 μg/ml and 100 μg/ml, day 6 culture",killed all cells
same,IFN-alpha-induced growth inhibition of WM9 in presence of drug,[5]; day 6,augmented
same,IFN-alpha- and IFN-beta-induced growth inhibition of WM9 in presence of drug,"[5]; day 6, most dramatic at 12.5-50 μg/ml and IFNs 12.5-50 units/ml",greatly enhanced
same,IFN-alpha-induced Stat1 tyrosine phosphorylation,[6],Enhanced
same,IFN-alpha-induced Stat1 tyrosine phosphorylation,[7],failed to enhance
same,expression levels of PML/RAR-alpha chimeric protein,[8],no detectable effect
